Experimental data taken from the supplement of paper PMC10307832.

Experiments:
Assay in all cases: relative viability (nuclei count vs DMSO), 5 days (fraction); higher = more cells survive
LK-2 = test system: LK-2
Summary of the method: (§1)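 Cells from lung cancer lines were seeded into 1536-well plates and, one day later, dosed by pin tool. Treatments were either a single drug or a fixed dose of an anchor drug with five library-drug doses (not always all listed) in √10 steps. After 5 days, nuclei were stained in a one-step fixation (final 0.05% Triton X-100, 1% formaldehyde, 1 ug/ml Hoechst) and counted on 4× images, and relative viability is the treated-to-vehicle nuclei ratio, as the median of duplicate plates.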

NCI-H2347 = test system: NCI-H2347
Summary of the method: as §1

UMC-11 = test system: UMC-11
Summary of the method: as §1

ABC-1 = test system: ABC-1
Summary of the method: as §1

NCI-H441 = test system: NCI-H441
Summary of the method: as §1

NCI-H838 = test system: NCI-H838
Summary of the method: as §1

LC-2-ad = test system: LC-2-ad
Summary of the method: as §1

SW 1573 = test system: SW 1573
Summary of the method: as §1

A-427 = test system: A-427
Summary of the method: as §1

NCI-H2023 = test system: NCI-H2023
Summary of the method: as §1

HCC-15 = test system: HCC-15
Summary of the method: as §1

NCI-H1793 = test system: NCI-H1793
Summary of the method: as §1

NCI-H1944 = test system: NCI-H1944
Summary of the method: as §1

NCI-H647 = test system: NCI-H647
Summary of the method: as §1

NCI-H2342 = test system: NCI-H2342
Summary of the method: as §1

NCI-H1915 = test system: NCI-H1915
Summary of the method: as §1

NCI-H322M = test system: NCI-H322M
Summary of the method: as §1

RERF-LC-KJ = test system: RERF-LC-KJ
Summary of the method: as §1

NCI-H2009 = test system: NCI-H2009
Summary of the method: as §1

EPLC-272H = test system: EPLC-272H
Summary of the method: as §1

NCI-H1734 = test system: NCI-H1734
Summary of the method: as §1

NCI-H358 = test system: NCI-H358
Summary of the method: as §1

NCI-H522 = test system: NCI-H522
Summary of the method: as §1

CCNC(=O)c1noc(-c2cc(C(C)C)c(O)cc2O)c1-c1ccc(CN2CCOCC2)cc1 [Luminespib] + COc1cccc2cc(-c3nc([C@H]4CC[C@H](C(=O)O)CC4)n4ncnc(N)c34)[nH]c12 [OSI-027] (partner 0.5 µM)
relative viability (LK-2; first compound 0.002 µM): 0.209
relative viability (LK-2; first compound 0.006325 µM): 0.191
relative viability (LK-2; first compound 0.02 µM): 0.149
relative viability (LK-2; first compound 0.06325 µM): 0.12
relative viability (LK-2; first compound 0.2 µM): 0.136
relative viability (NCI-H2347; first compound 0.002 µM): 0.414
relative viability (NCI-H2347; first compound 0.006325 µM): 0.355
relative viability (NCI-H2347; first compound 0.02 µM): 0.41
relative viability (NCI-H2347; first compound 0.06325 µM): 0.185
relative viability (NCI-H2347; first compound 0.2 µM): 0.227
relative viability (UMC-11; first compound 0.002 µM): 0.538
relative viability (UMC-11; first compound 0.006325 µM): 0.42
relative viability (UMC-11; first compound 0.02 µM): 0.303
relative viability (UMC-11; first compound 0.06325 µM): 0.224
relative viability (UMC-11; first compound 0.2 µM): 0.207
relative viability (ABC-1; first compound 0.002 µM): 0.532
relative viability (ABC-1; first compound 0.006325 µM): 0.476
relative viability (ABC-1; first compound 0.02 µM): 0.312
relative viability (ABC-1; first compound 0.06325 µM): 0.195
relative viability (ABC-1; first compound 0.2 µM): 0.186
relative viability (NCI-H441; first compound 0.002 µM): 0.655
relative viability (NCI-H441; first compound 0.006325 µM): 0.588
relative viability (NCI-H441; first compound 0.02 µM): 0.286
relative viability (NCI-H441; first compound 0.06325 µM): 0.142
relative viability (NCI-H441; first compound 0.2 µM): 0.16
relative viability (NCI-H838; first compound 0.002 µM): 0.391
relative viability (NCI-H838; first compound 0.006325 µM): 0.375
relative viability (NCI-H838; first compound 0.02 µM): 0.275
relative viability (NCI-H838; first compound 0.06325 µM): 0.134
relative viability (NCI-H838; first compound 0.2 µM): 0.149
relative viability (LC-2-ad; first compound 0.002 µM): 0.806
relative viability (LC-2-ad; first compound 0.006325 µM): 0.822
relative viability (LC-2-ad; first compound 0.02 µM): 0.569
relative viability (LC-2-ad; first compound 0.06325 µM): 0.259
relative viability (LC-2-ad; first compound 0.2 µM): 0.28
relative viability (SW 1573; first compound 0.002 µM): 0.633
relative viability (SW 1573; first compound 0.006325 µM): 0.549
relative viability (SW 1573; first compound 0.02 µM): 0.199
relative viability (SW 1573; first compound 0.06325 µM): 0.0962
relative viability (SW 1573; first compound 0.2 µM): 0.09
relative viability (A-427; first compound 0.002 µM): 0.462
relative viability (A-427; first compound 0.006325 µM): 0.396
relative viability (A-427; first compound 0.02 µM): 0.366
relative viability (A-427; first compound 0.06325 µM): 0.158
relative viability (A-427; first compound 0.2 µM): 0.121
relative viability (NCI-H2023; first compound 0.002 µM): 0.44
relative viability (NCI-H2023; first compound 0.006325 µM): 0.374
relative viability (NCI-H2023; first compound 0.02 µM): 0.131
relative viability (NCI-H2023; first compound 0.06325 µM): 0.0545
relative viability (NCI-H2023; first compound 0.2 µM): 0.0624
relative viability (HCC-15; first compound 0.002 µM): 0.686
relative viability (HCC-15; first compound 0.006325 µM): 0.644
relative viability (HCC-15; first compound 0.02 µM): 0.556
relative viability (HCC-15; first compound 0.06325 µM): 0.0983
relative viability (HCC-15; first compound 0.2 µM): 0.0973
relative viability (NCI-H1793; first compound 0.002 µM): 0.257
relative viability (NCI-H1793; first compound 0.006325 µM): 0.246
relative viability (NCI-H1793; first compound 0.02 µM): 0.199
relative viability (NCI-H1793; first compound 0.06325 µM): 0.125
relative viability (NCI-H1793; first compound 0.2 µM): 0.112
relative viability (NCI-H1944; first compound 0.002 µM): 0.422
relative viability (NCI-H1944; first compound 0.006325 µM): 0.359
relative viability (NCI-H1944; first compound 0.02 µM): 0.365
relative viability (NCI-H1944; first compound 0.06325 µM): 0.215
relative viability (NCI-H1944; first compound 0.2 µM): 0.152
relative viability (NCI-H647; first compound 0.002 µM): 0.717
relative viability (NCI-H647; first compound 0.006325 µM): 0.626
relative viability (NCI-H647; first compound 0.02 µM): 0.595
relative viability (NCI-H647; first compound 0.06325 µM): 0.0814
relative viability (NCI-H647; first compound 0.2 µM): 0.0562
relative viability (NCI-H2342; first compound 0.002 µM): 0.623
relative viability (NCI-H2342; first compound 0.006325 µM): 0.586
relative viability (NCI-H2342; first compound 0.02 µM): 0.545
relative viability (NCI-H2342; first compound 0.06325 µM): 0.569
relative viability (NCI-H2342; first compound 0.2 µM): 0.397
relative viability (NCI-H1915; first compound 0.002 µM): 0.596
relative viability (NCI-H1915; first compound 0.006325 µM): 0.502
relative viability (NCI-H1915; first compound 0.02 µM): 0.517
relative viability (NCI-H1915; first compound 0.06325 µM): 0.243
relative viability (NCI-H1915; first compound 0.2 µM): 0.0689
relative viability (NCI-H322M; first compound 0.002 µM): 0.564
relative viability (NCI-H322M; first compound 0.006325 µM): 0.503
relative viability (NCI-H322M; first compound 0.02 µM): 0.467
relative viability (NCI-H322M; first compound 0.06325 µM): 0.278
relative viability (NCI-H322M; first compound 0.2 µM): 0.312
relative viability (RERF-LC-KJ; first compound 0.002 µM): 0.584
relative viability (RERF-LC-KJ; first compound 0.006325 µM): 0.536
relative viability (RERF-LC-KJ; first compound 0.02 µM): 0.346
relative viability (RERF-LC-KJ; first compound 0.06325 µM): 0.207
relative viability (RERF-LC-KJ; first compound 0.2 µM): 0.195
relative viability (NCI-H2009; first compound 0.002 µM): 0.773
relative viability (NCI-H2009; first compound 0.006325 µM): 0.534
relative viability (NCI-H2009; first compound 0.02 µM): 0.518
relative viability (NCI-H2009; first compound 0.06325 µM): 0.0609
relative viability (NCI-H2009; first compound 0.2 µM): 0.0769
relative viability (EPLC-272H; first compound 0.002 µM): 0.261
relative viability (EPLC-272H; first compound 0.006325 µM): 0.26
relative viability (EPLC-272H; first compound 0.06325 µM): 0.27
relative viability (EPLC-272H; first compound 0.2 µM): 0.122
relative viability (NCI-H1734; first compound 0.002 µM): 0.538
relative viability (NCI-H1734; first compound 0.006325 µM): 0.555
relative viability (NCI-H1734; first compound 0.02 µM): 0.352
relative viability (NCI-H1734; first compound 0.06325 µM): 0.168
relative viability (NCI-H1734; first compound 0.2 µM): 0.156
relative viability (NCI-H358; first compound 0.002 µM): 0.9
relative viability (NCI-H358; first compound 0.006325 µM): 0.747
relative viability (NCI-H358; first compound 0.02 µM): 0.362
relative viability (NCI-H358; first compound 0.06325 µM): 0.0472
relative viability (NCI-H358; first compound 0.2 µM): 0.0538
relative viability (NCI-H522; first compound 0.002 µM): 0.687
relative viability (NCI-H522; first compound 0.006325 µM): 0.732
relative viability (NCI-H522; first compound 0.02 µM): 0.615
relative viability (NCI-H522; first compound 0.06325 µM): 0.538
relative viability (NCI-H522; first compound 0.2 µM): 0.587
